Test results published in article PMC3927474, “Whole body synthesis rates of DHA from α-linolenic acid are greater than brain DHA accretion and uptake rates in adult rats” (Journal of Lipid Research, 2014).
Where “and” joins values, the source holds several entries; their conditions need not be identical. Equal entries are not always repeated. Marks after values point to notes of the source that are not given here.

What was measured:
[1] = From the text: At 15 weeks postweaning, rats were subjected to surgery to implant a catheter into their jugular vein. The animals were anesthetized using isoflurane inhalation (5% induction, 1–3% maintenance). Before the incision was made, hair was shaved from the incision site and the site was sterilized with iodine and ethanol. A transverse incision was made anterior to the upper thorax. The jugular vein was located by blunt dissection. The vein was isolated and tied off. The vein was then nicked and a catheter (PE 50; Intramedic, Sparks, MD) with a 3.5 cm silastic tubing end (VWR, Mississauga, ON, Canada) was inserted into the vein. The catheter was secured using 3.0 silk sutures and a 16 gauge Angiocath (Becton Dickinson, Mississauga, ON, Canada) was used to guide the catheter subcutaneously to a site outside the body near the scapula. An incision was made at this site and the catheter was tucked beneath the skin at the incision site. The incision site was stapled to protect the catheter from the rats. The incision site on the chest was closed with 4.0 silk sutures and the rats were allowed to recover from the anesthetic under a heat lamp. Approximately 24 h after the surgery, the tail vein of the rats was cannulated with a 24 gauge Angiocath (Becton Dickinson). While the rats were restrained, the staple closing the incision site on the scapula was removed and the jugular vein catheter was connected to a longer polyethylene catheter. The rats were then placed in an infusion box that contained food, a chew toy, and bedding from the rat's cage. The tail vein catheter was then connected to an infusion line. Rats were able to move freely within the infusion box throughout the infusion.
Modified from the method of Rapoport, Igarashi, and Gao ([38]); 4.5 μmol/100 g body weight of ^2H-ALA (^2H14-ALA, purity >95% confirmed by GC-FID and GC-MS; Cayman Chemical, Ann Arbor, MI) was infused into the tail vein for 3 h. To prepare the infusate, a known amount of ^2H-ALA was dissolved in 5 mM HEPES buffer (pH 7.4) containing 50 mg/ml fatty acid-free BSA. The infusate was mixed by sonication at 37°C. An infusion pump (Harvard Apparatus PHD 2000; Holliston, MA) was used to infuse 3.78 ml of tracer solution at a constant rate of 0.021 ml/min for 3 h. Immediately before the infusion and every 30 min during the infusion 0.2 ml of blood was drawn from the jugular vein. The jugular vein catheter was flushed with heparinized saline (5% by volume) after every blood draw to prevent coagulation in the line. After 180 min of the infusion, 1 ml of blood was drawn from the jugular vein and the animals were euthanized with a lethal injection of T-61 into the tail vein. All blood samples were centrifuged for 10 min (PC-100 microcentrifuge; Diamed, ON, Canada) and the plasma was collected and stored at −80°C.
Plasma volume was determined using the method of Schreihofer, Hair, and Stepp as modified by Gao et al.([24], [39]). Briefly, a known amount of Evans Blue dye was injected into the tail veins of the rats. After 15 min, 1 ml of blood was drawn from the jugular vein, twice. The plasma was collected as described above, and 0.1 ml of plasma was diluted into 1 ml of saline. Absorbance at 604 nm was measured with a Nanodrop 1000 and by comparing the absorbance to a standard curve, the concentration of the dye was determined.
Fifty microliters of plasma were added to a test tube which contained known amounts of unesterified 17:0 standard and di-17:0 phosphatidylcholine standard. Lipids were extracted from the plasma using the method of Folch, Lees, and Sloane Stanley ([28]), as described above.
Thin layer chromatography (TLC) was used to separate esterified and unesterified lipids. The TLE was dried under N2 and reconstituted in 250 μl chloroform. TLC plates (TLC silica gel 60, EMD) that were washed in chloroform and methanol (2:1) were activated by heat at 100°C for 1 h.

[2] = Balance study: n-3 and n-6 PUFA balance (intake, excretion, accretion, metabolic consumption); type: in vivo, rat; details: for Fecal excretion: mean % excretion applied to intake; for Fecal excretion / Metabolic consumption of dietary PUFAs: DHA group: refers to DHA; for Dietary PUFA excreted in the feces: 24 h feces at 8 weeks postweaning, percentage of intake; for Metabolic consumption of dietary PUFAs: n-3 PUFA, Eq. 1, 15 weeks
Description: All procedures were performed in accordance with the policies set out by the Canadian Council on Animal Care and were approved by the Animal Ethics Committee at the University of Toronto. Three Long Evans dams each with 18-day-old male Long Evans pups were ordered from Charles River Laboratories (St. Constant, QC, Canada). Pups were nonlittermates and each dam was housed with pups. Upon arrival, dams were allocated to one of the three diets (described below). When the pups were 21 days old, two pups from each dam were euthanized by high-energy head-focused microwave fixation (4.5 kW for 0.9 s). Brains were removed immediately and stored at -80°C until lipid analysis. Bodies were also stored at -80°C immediately after euthanization until analysis. The brains and bodies of these pups were used to determine the PUFA content of the rats at weaning (i.e., baseline PUFA content). […] For the balance study, the rats were weighed, food intake was determined, and uneaten food was replaced with fresh food on a weekly basis. Rats were euthanized by CO2 asphyxiation. Brains were removed and dissected sagittally. Carcasses and one half brain per rat were stored immediately at -80°C (to be later analyzed for lipid content). […] For the steady-state infusion study and the brain DHA uptake study, a jugular vein catheter was surgically implanted into the rats. […] Carcasses were thawed overnight in a refrigerator at 3°C, cut into pieces, and passed through a #12 hand grinder. After the whole body had passed through the grinder once, the homogenate was mixed together by hand and passed at least one more time through the grinder until the mixture was sufficiently homogeneous. Due to the small size of the pups all of the 21-day-old pup bodies were passed through the grinder together. […] New chloroform was added to the remaining aqueous phase, the mixture was once again centrifuged, and the chloroform layer was extracted and added to the previously extracted chloroform layer. […] One hemisphere was thawed briefly and dissected over ice to separate the brainstem, cerebellum, cortex, hippocampus, striatum, and the rest of the brain. […] The homogenizer was then washed with methanol, which was then transferred to the test tube containing the homogenized brain and KCl. […] The chloroform layer was extracted and new chloroform was added to the aqueous phase. […] At 8 weeks postweaning all the feces produced by a rat in 24 h were collected. […] Mean PUFA excretion (percentage of intake) was determined and applied to all animals to determine PUFA excretion. […] Nu-Check Prep, Elysian, MN) was added to the TLE. […] Samples were injected in […] mode. The injector and detector ports were set at 250°C. […] The carrier gas was helium, set to a constant flow rate of 0.7 ml/min. Peaks were identified by retention times of authentic FAME standards (Nu-Chek Prep). […] The concentrations were expressed on a per gram basis then multiplied by total weight of the tissue to determine the total amount of each fatty acid in the tissue.

[3] = average over 15 weeks, listed as DHA diet

Compound: CC/C=C\C/C=C\C/C=C\CCCCCCCC(=O)O [ALA, α-linolenic acid]
- Mean plasma [^2H-ALA]unesterified during infusion ([1]; 4.5 μmol/100 g ^2H-ALA i.v. over 3 h): 2.5 ± 0.5 nmol/mL
- Smax,i (maximum first derivative) ([1]; 15 wk diet, 3 h ^2H-ALA infusion, n = 4): 0.339 ± 0.135 nmol/min
- Daily Secretion Rate (daily DHA synthesis rate) ([1]; 15 wk diet, n = 4): 1452 ± 395 nmol/day
- FDHA (turnover rate of esterified plasma DHA) ([1]; 15 wk diet, n = 4): 0.0002 ± 4e-05 min⁻¹
- Jsyn (synthesis rate of DHA from ALA) ([1]; 15 wk diet, n = 4): 1.008 ± 0.274 nmol/min
- k1,DHA (synthesis-secretion coefficient for DHA synthesis from ALA) ([1]; 15 wk diet, n = 4): 0.131 ± 0.04 mL/min
- DHA synthesis rate relative to brain DHA uptake rate ([1]; ALA-fed rats, infusion synthesis vs ^14C-DHA uptake): approximately 3 fold
- DHA synthesis rate from ALA (steady-state infusion) ([1]; at 15 weeks postweaning): 1.5 µmol/day
- Fecal Excretion of LNA ([2]; 15 weeks): 877 µmol
- Metabolic consumption of dietary PUFA (n-6) ([2]; 15 weeks): 147161 µmol
- Fecal excretion ([2]; 15 weeks): 57 ± 2 µmol
- Body Content of n-6 PUFA, Day 105 ([2]; 15 wk diet): 29170 µmol
- Brain Content of n-6 PUFA, Day 105 ([2]; 15 wk diet): 20 µmol
- Total Accretion: 18:3n-6 ([2]; 15 wk diet): 52 µmol
- Total Accretion: 20:2n-6 ([2]; 15 wk diet): 169 µmol
- Total Accretion: 22:4n-6 ([2]; 15 wk diet): 138 µmol
- Total Accretion: ARA ([2]; 15 wk diet): 1806 µmol
- Total Accretion: LNA ([2]; 15 wk diet): 25157 µmol
- Total Accretion: Total n-6 PUFA ([2]; 15 wk diet): 27489 µmol
- Body content of n-3 PUFAs, Day 105 ([2]; 15 wk diet, n = 11): 2352 ± 166^b μmol
- Brain content of n-3 PUFAs, Day 105 ([2]; 15 wk diet, n = 11): 14 ± 2^b μmol
- Dietary PUFA excreted in the feces [2]: 0.27 ± 0.002%
- Brain DHA accretion rate (balance study) ([2]; average over 15 weeks): 0.032 ± 0.005 µmol/day
- Total DHA synthesis-accretion rate (balance study) ([2]; average over 15 weeks, body + brain, listed as ALA diet): 4.2 µmol/day and 4.2 ± 0.4 µmol/day
- DHA synthesis and accretion in ALA-fed rats relative to brain DHA accretion of DHA-fed rats ([2]; balance study): 100 fold
- Dietary ALA metabolically consumed ([2]; balance study): approximately 90%
- Body Content of n-6 PUFA, Day 0 ([2]; baseline): 1491 µmol
- Brain Content of n-6 PUFA, Day 0 ([2]; baseline): 14 µmol
- Body content of n-3 PUFAs, Day 0 ([2]; baseline, 21-day-old pups, n = 2): 139 ± 3 µmol
- Brain content of n-3 PUFAs, Day 0 ([2]; baseline, n = 2): 10 ± 0.6 µmol
- Total accretion: 20:3n-3 ([2]; body + brain, 15 wk diet): 110 ± 11^ab μmol
- Total accretion: ALA ([2]; body + brain, 15 wk diet): 1500 ± 100^b μmol
- Total accretion: DHA ([2]; body + brain, 15 wk diet): 440 ± 39^b μmol
- Total accretion: DPAn-3 ([2]; body + brain, 15 wk diet): 90 ± 7^b μmol
- Total accretion: EPA ([2]; body + brain, 15 wk diet): 70 ± 10^b μmol
- Total accretion: Total n-3 PUFA ([2]; body + brain, 15 wk diet): 2209 ± 107^b μmol
- Metabolic consumption of dietary PUFAs [2]: 19037 ± 617^b μmol

Compound: CC/C=C\C/C=C\C/C=C\C/C=C\C/C=C\C/C=C\CCC(=O)O [DHA, Docosahexaenoic acid]
- Reduction of DHA synthesis by 2% dietary DHA ([1]; synthesis rate not quantifiable in DHA-fed rats): greater than 30 fold
- Metabolic consumption of dietary PUFA (n-6) ([2]; 15 weeks): 157517 µmol
- Fecal excretion ([2]; 15 weeks): 10 ± 0.4 µmol
- Body Content of n-6 PUFA, Day 105 ([2]; 15 wk diet): 32391 µmol
- Brain Content of n-6 PUFA, Day 105 ([2]; 15 wk diet): 17 µmol
- Total Accretion: 18:3n-6 ([2]; 15 wk diet): 41 µmol
- Total Accretion: 20:2n-6 ([2]; 15 wk diet): 167 µmol
- Total Accretion: 22:4n-6 ([2]; 15 wk diet): 97 µmol
- Total Accretion: ARA ([2]; 15 wk diet): 1539 µmol
- Total Accretion: LNA ([2]; 15 wk diet): 28810 µmol
- Total Accretion: Total n-6 PUFA ([2]; 15 wk diet): 30720 µmol
- Dietary PUFA excreted in the feces [2]: 0.07 ± 0.02%
- Brain DHA accretion rate (balance study) ([2]; average over 15 weeks): 0.042 ± 0.007 µmol/day
- Brain DHA accretion rate (balance study) [2, 3]: 0.042 µmol/day
- DHA uptake and accretion rate into the brain (balance study) [2, 3]: 42 nmol/day and 42 ± 7 nmol/day
- Brain Content of n-6 PUFA, Day 0 ([2]; baseline): 14 µmol
- Total accretion: DHA ([2]; body + brain, 15 wk diet): 1119 ± 62^c μmol
- Metabolic consumption of dietary PUFAs [2]: 15783 ± 548^b,** μmol
